Measured values taken from PubChem BioAssay (NCI).
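Five concentrations, 48 hours, 96-well plates. Abbreviation: GI50, concentration required for 50% inhibition of growth. The concentration for full growth arrest is given as TGI.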

What was measured:
Experiment in all cases: DTP human tumour cell line panel, 48 h
786-0 renal = tested on: 786-0 renal
A498 renal = tested on: A498 renal
A549 NSCLC = tested on: A549 NSCLC
ACHN renal = tested on: ACHN renal
BT-549 breast = tested on: BT-549 breast
CAKI-1 renal = tested on: CAKI-1 renal
CCRF-CEM leukemia = tested on: CCRF-CEM leukemia
COLO 205 colon = tested on: COLO 205 colon
DU-145 prostate = tested on: DU-145 prostate
HCC-2998 colon = tested on: HCC-2998 colon
HCT-116 colon = tested on: HCT-116 colon
HCT-15 colon = tested on: HCT-15 colon
HL-60(TB) leukemia = tested on: HL-60(TB) leukemia
HOP-62 NSCLC = tested on: HOP-62 NSCLC
HS 578T breast = tested on: HS 578T breast
HT29 colon = tested on: HT29 colon
IGROV1 ovarian = tested on: IGROV1 ovarian
K-562 leukemia = tested on: K-562 leukemia
KM12 colon = tested on: KM12 colon
LOX IMVI melanoma = tested on: LOX IMVI melanoma
M14 melanoma = tested on: M14 melanoma
MALME-3M melanoma = tested on: MALME-3M melanoma
MCF7 breast = tested on: MCF7 breast
MDA-MB-231 breast = tested on: MDA-MB-231 breast
MDA-MB-435 = tested on: MDA-MB-435
MOLT-4 leukemia = tested on: MOLT-4 leukemia
NCI-H226 lung = tested on: NCI-H226 lung
NCI-H23 lung = tested on: NCI-H23 lung
NCI-H460 lung = tested on: NCI-H460 lung
NCI-H522 lung = tested on: NCI-H522 lung
NCI/ADR-RES ovarian = tested on: NCI/ADR-RES ovarian
OVCAR-3 ovarian = tested on: OVCAR-3 ovarian
OVCAR-4 ovarian = tested on: OVCAR-4 ovarian
OVCAR-5 ovarian = tested on: OVCAR-5 ovarian
OVCAR-8 ovarian = tested on: OVCAR-8 ovarian
PC-3 prostate = tested on: PC-3 prostate
RPMI-8226 leukemia = tested on: RPMI-8226 leukemia
RXF 393 renal = tested on: RXF 393 renal
SF-268 CNS = tested on: SF-268 CNS
SF-295 CNS = tested on: SF-295 CNS
SF-539 CNS = tested on: SF-539 CNS
SK-MEL-2 melanoma = tested on: SK-MEL-2 melanoma
SK-MEL-28 melanoma = tested on: SK-MEL-28 melanoma
SK-MEL-5 melanoma = tested on: SK-MEL-5 melanoma
SK-OV-3 ovarian = tested on: SK-OV-3 ovarian
SN12C renal = tested on: SN12C renal
SNB-19 CNS = tested on: SNB-19 CNS
SNB-75 CNS = tested on: SNB-75 CNS
SW-620 colon = tested on: SW-620 colon
T-47D breast = tested on: T-47D breast
TK-10 renal = tested on: TK-10 renal
U251 CNS = tested on: U251 CNS
UACC-257 melanoma = tested on: UACC-257 melanoma
UACC-62 melanoma = tested on: UACC-62 melanoma
UO-31 renal = tested on: UO-31 renal

For Cn1cc(C2=C(n3ccc4ccccc43)C(=O)NC2=O)c2ccccc21, the GI50 (786-0 renal) was greater than 25 µM, the TGI (786-0 renal) was greater than 25 µM and the GI50 (A498 renal) was greater than 25 µM. The TGI (A498 renal) was greater than 25 µM, the GI50 (A549 NSCLC) was greater than 25 µM and the TGI (A549 NSCLC) was greater than 25 µM. For the same compound, the GI50 (ACHN renal) was greater than 25 µM, the TGI (ACHN renal) was greater than 25 µM and the GI50 (BT-549 breast) was greater than 25 µM. It also gave a TGI (BT-549 breast) greater than 25 µM, a GI50 (CAKI-1 renal) greater than 25 µM and a TGI (CAKI-1 renal) greater than 25 µM. The GI50 (CCRF-CEM leukemia) was greater than 25 µM, the TGI (CCRF-CEM leukemia) was greater than 25 µM and the GI50 (COLO 205 colon) was greater than 25 µM. The TGI (COLO 205 colon) was greater than 25 µM, the GI50 (DU-145 prostate) was greater than 25 µM and the TGI (DU-145 prostate) was greater than 25 µM. For the same compound, the GI50 (HCC-2998 colon) was greater than 25 µM, the TGI (HCC-2998 colon) was greater than 25 µM and the GI50 (HCT-116 colon) was greater than 25 µM. For the same compound, the TGI (HCT-116 colon) was greater than 25 µM, the GI50 (HCT-15 colon) was greater than 25 µM and the TGI (HCT-15 colon) was greater than 25 µM. It also gave a GI50 (HL-60(TB) leukemia) greater than 25 µM, a TGI (HL-60(TB) leukemia) greater than 25 µM and a GI50 (HOP-62 NSCLC) greater than 25 µM. The TGI (HOP-62 NSCLC) was greater than 25 µM, the GI50 (HS 578T breast) was greater than 25 µM and the TGI (HS 578T breast) was greater than 25 µM. For the same compound, the GI50 (HT29 colon) was greater than 25 µM, the TGI (HT29 colon) was greater than 25 µM and the GI50 (IGROV1 ovarian) was greater than 25 µM. The TGI (IGROV1 ovarian) was greater than 25 µM, the GI50 (K-562 leukemia) was greater than 25 µM and the TGI (K-562 leukemia) was greater than 25 µM. It also gave a GI50 (KM12 colon) greater than 25 µM, a TGI (KM12 colon) greater than 25 µM and a GI50 (LOX IMVI melanoma) greater than 25 µM. For the same compound, the TGI (LOX IMVI melanoma) was greater than 25 µM, the GI50 (M14 melanoma) was greater than 25 µM and the TGI (M14 melanoma) was greater than 25 µM. It also gave a GI50 (MALME-3M melanoma) greater than 25 µM, a TGI (MALME-3M melanoma) greater than 25 µM and a GI50 (MCF7 breast) greater than 25 µM. The TGI (MCF7 breast) was greater than 25 µM, the GI50 (MDA-MB-231 breast) was greater than 25 µM and the TGI (MDA-MB-231 breast) was greater than 25 µM. The GI50 (MDA-MB-435) was greater than 25 µM, the TGI (MDA-MB-435) was greater than 25 µM and the GI50 (MOLT-4 leukemia) was greater than 25 µM. For the same compound, the TGI (MOLT-4 leukemia) was greater than 25 µM, the GI50 (NCI-H226 lung) was greater than 25 µM and the TGI (NCI-H226 lung) was greater than 25 µM. For the same compound, the GI50 (NCI-H23 lung) was greater than 25 µM, the TGI (NCI-H23 lung) was greater than 25 µM and the GI50 (NCI-H460 lung) was greater than 25 µM. It also gave a TGI (NCI-H460 lung) greater than 25 µM, a GI50 (NCI-H522 lung) greater than 25 µM and a TGI (NCI-H522 lung) greater than 25 µM. The GI50 (NCI/ADR-RES ovarian) was greater than 25 µM, the TGI (NCI/ADR-RES ovarian) was greater than 25 µM and the GI50 (OVCAR-3 ovarian) was greater than 25 µM. It also gave a TGI (OVCAR-3 ovarian) greater than 25 µM, a GI50 (OVCAR-4 ovarian) greater than 25 µM and a TGI (OVCAR-4 ovarian) greater than 25 µM. The GI50 (OVCAR-5 ovarian) was greater than 25 µM, the TGI (OVCAR-5 ovarian) was greater than 25 µM and the GI50 (OVCAR-8 ovarian) was greater than 25 µM. The TGI (OVCAR-8 ovarian) was greater than 25 µM, the GI50 (PC-3 prostate) was greater than 25 µM and the TGI (PC-3 prostate) was greater than 25 µM. It also gave a GI50 (RPMI-8226 leukemia) greater than 25 µM, a TGI (RPMI-8226 leukemia) greater than 25 µM and a GI50 (RXF 393 renal) greater than 25 µM. The TGI (RXF 393 renal) was greater than 25 µM, the GI50 (SF-268 CNS) was greater than 25 µM and the TGI (SF-268 CNS) was greater than 25 µM. For the same compound, the GI50 (SF-295 CNS) was greater than 25 µM, the TGI (SF-295 CNS) was greater than 25 µM and the GI50 (SF-539 CNS) was greater than 25 µM. It also gave a TGI (SF-539 CNS) greater than 25 µM, a GI50 (SK-MEL-2 melanoma) greater than 25 µM and a TGI (SK-MEL-2 melanoma) greater than 25 µM. The GI50 (SK-MEL-28 melanoma) was greater than 25 µM, the TGI (SK-MEL-28 melanoma) was greater than 25 µM and the GI50 (SK-MEL-5 melanoma) was greater than 25 µM. The TGI (SK-MEL-5 melanoma) was greater than 25 µM, the GI50 (SK-OV-3 ovarian) was greater than 25 µM and the TGI (SK-OV-3 ovarian) was greater than 25 µM. For the same compound, the GI50 (SN12C renal) was greater than 25 µM, the TGI (SN12C renal) was greater than 25 µM and the GI50 (SNB-19 CNS) was greater than 25 µM. It also gave a TGI (SNB-19 CNS) greater than 25 µM, a GI50 (SNB-75 CNS) greater than 9.34 µM and a TGI (SNB-75 CNS) greater than 25 µM. For the same compound, the GI50 (SW-620 colon) was greater than 25 µM, the TGI (SW-620 colon) was greater than 25 µM and the GI50 (T-47D breast) was greater than 25 µM. It also gave a TGI (T-47D breast) greater than 25 µM, a GI50 (TK-10 renal) greater than 25 µM and a TGI (TK-10 renal) greater than 25 µM. For the same compound, the GI50 (U251 CNS) was greater than 25 µM, the TGI (U251 CNS) was greater than 25 µM and the GI50 (UACC-257 melanoma) was greater than 25 µM. It also gave a TGI (UACC-257 melanoma) greater than 25 µM, a GI50 (UACC-62 melanoma) greater than 25 µM and a TGI (UACC-62 melanoma) greater than 25 µM. It also gave a GI50 (UO-31 renal) greater than 21.6 µM and a TGI (UO-31 renal) greater than 25 µM.
